Starred links: 1 amine or outer side, 2 acyl side, 3 side chain; linkers in the order of their positions; H or OH if unused. Non-standard residues stand in square brackets, D forms with d. Residues, ends and D or L forms follow the SMILES beside them. Groups on a side chain read outwards from the residue. *: point of attachment. Tetrahydroisoquinolin(2-yl) = c1ccc2c(c1)CCN(*)C2; Pro(3S-Et) = CC[C@H]1CCN[C@@H]1C(=O)O; X1 = CCC[C@H](N[*:1])C(=O)C(=O)[*:2]; Pyrazinecarbonyl = O=C(c1cnccn1)*; Hyp = O=C(O)[C@@H]1C[C@@H](O)CN1; CO = O=C([*:1])[*:2]
Legend:
[1] = target: Hepatitis C virus serine protease, NS3/NS4A (Hepatitis C virus, UniProt D2K2A8+A3EZI9); assay: (§1) Inhibitory activity against hepatitis C virus NS3.4A protease; format: protein-complex assay, Hepacivirus hominis
Chain of Hepatitis C virus serine protease, NS3/NS4A (Hepatitis C virus, UniProt D2K2A8+A3EZI9) (D2K2A8 whole entry): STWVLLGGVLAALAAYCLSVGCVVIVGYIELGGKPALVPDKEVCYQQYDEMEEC
Chain of Hepatitis C virus serine protease, NS3/NS4A (Hepatitis C virus, UniProt D2K2A8+A3EZI9) (A3EZI9 whole entry): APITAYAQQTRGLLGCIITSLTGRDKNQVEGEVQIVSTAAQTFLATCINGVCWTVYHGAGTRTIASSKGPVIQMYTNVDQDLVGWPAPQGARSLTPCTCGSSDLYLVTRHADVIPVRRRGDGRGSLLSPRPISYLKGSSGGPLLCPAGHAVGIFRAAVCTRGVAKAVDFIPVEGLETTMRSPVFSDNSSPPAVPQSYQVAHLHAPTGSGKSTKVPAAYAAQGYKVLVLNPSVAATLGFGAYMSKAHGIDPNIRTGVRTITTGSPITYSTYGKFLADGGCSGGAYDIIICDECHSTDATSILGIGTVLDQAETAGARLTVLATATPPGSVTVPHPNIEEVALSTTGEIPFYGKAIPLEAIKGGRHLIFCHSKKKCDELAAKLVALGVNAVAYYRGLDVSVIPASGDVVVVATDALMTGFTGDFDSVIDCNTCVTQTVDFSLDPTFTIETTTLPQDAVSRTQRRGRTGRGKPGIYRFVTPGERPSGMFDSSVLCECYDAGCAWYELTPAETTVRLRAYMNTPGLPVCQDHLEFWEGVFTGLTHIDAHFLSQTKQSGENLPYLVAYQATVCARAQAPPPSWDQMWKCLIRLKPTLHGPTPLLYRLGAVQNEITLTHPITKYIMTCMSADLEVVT

[2] = target: Hepatitis C virus serine protease, NS3/NS4A (Hepatitis C virus, UniProt A3EZI9+D2K2A8); assay: as §1; format: protein-complex assay, Hepacivirus hominis
Chain of Hepatitis C virus serine protease, NS3/NS4A (Hepatitis C virus, UniProt A3EZI9+D2K2A8) (D2K2A8 whole entry): as the sequence (D2K2A8 whole entry) above
Chain of Hepatitis C virus serine protease, NS3/NS4A (Hepatitis C virus, UniProt A3EZI9+D2K2A8) (A3EZI9 whole entry): as the sequence (A3EZI9 whole entry) above

| SMILES | Ki [1] [nM] | Ki [2] [nM] |
| --- | --- | --- |
| C=CC[C@H]1CCN(C(=O)[C@@H](NC(=O)[C@@H](NC(=O)c2cnccn2)C(C)C)C(C)C)[C@@H]1C(=O)N[C@@H](CCC)C(=O)C(=O)N[C@@H](Cc1ccccc1)C(=O)O | 210 | – |
| CC[C@H](NC(=O)[C@@H]1C[C@@H](OCc2ccccc2)CN1C(=O)[C@@H](NC(=O)[C@@H](NC(=O)c1cnccn1)C(C)C)C(C)C)C(=O)C(=O)N[C@@H](C)c1ccccc1 | 920 | – |
| CCC[C@H](NC(=O)[C@@H]1[C@@H](C(C)CC)CCN1C(=O)[C@@H](NC(=O)[C@@H](NC(=O)c1cnccn1)C(C)C)C(C)C)C(=O)C(=O)N[C@@H](Cc1ccccc1)C(=O)O (some centres undefined) | 120 | – |
| CCC[C@H](NC(=O)[C@@H]1CCCN1C(=O)[C@@H](NC(=O)[C@@H](NC(=O)c1cnccn1)C1CCCCC1)C(C)(C)C)C(=O)C(=O)NC1CC1 | – | 1200 |
| CC[C@H](NC(=O)[C@@H]1[C@@H](C)CCN1C(=O)[C@@H](NC(=O)[C@@H](NC(=O)c1cnccn1)C(C)C)C(C)C)C(=O)C(=O)N[C@@H](C)c1ccccc1 | 1400 | – |
| CCC[C@H](NC(=O)[C@@H]1[C@@H](C(=O)OC)CCN1C(=O)[C@@H](NC(=O)[C@@H](NC(=O)c1cnccn1)C(C)C)C(C)C)C(=O)C(=O)N[C@@H](Cc1ccccc1)C(=O)O | 180 | – |
| CCC[C@H](NC(=O)[C@@H]1[C@@H](CC)CCN1C(=O)[C@@H](NC(=O)[C@@H](NC(=O)c1cnccn1)C(C)C)C(C)C)C(=O)C(=O)N[C@@H](Cc1ccccc1)C(=O)O (Pyrazinecarbonyl-VV[Pro(3S-Et)][X1]F-OH) | 220 | – |
| CCC[C@H](NC(=O)[C@@H]1C[C@@H](OC(=O)N2CCc3ccccc3C2)CN1C(=O)[C@@H](NC(=O)[C@@H](NC(=O)c1cnccn1)C(C)C)C(C)C)C(=O)C(=O)N[C@@H](Cc1ccccc1)C(=O)O (Pyrazinecarbonyl-VV[Hyp]([CO-Tetrahydroisoquinolin(2-yl)])[X1]F-OH) | 20 | – |
| CCC[C@H]1CCN(C(=O)[C@@H](NC(=O)[C@@H](NC(=O)c2cnccn2)C(C)C)C(C)C)[C@@H]1C(=O)N[C@@H](CCC)C(=O)C(=O)N[C@@H](Cc1ccccc1)C(=O)O | 1200 | – |
